Source: patent publication US10287251B2, “Pyrazole derivative or pharmaceutically acceptable salt thereof” (KISSEI PHARMACEUTICAL CO., LTD., priority 2015, dated 2019)

Biological target: T1, TRPM8 (Rattus norvegicus, UniProt Q8R455)
T1 construct: from tissue; host or cells: whole animal, female SD rats (in vivo)
Test: Confirmation test of inhibitory effects on icilin-induced wet-dog shakes
Type: in vivo
Conditions: female SD rats, oral dose 0.3 mg/kg, icilin 1 mg/kg i.p. 1 hour after dosing, shakes counted for 5 minutes
Text: Further, TRPM8 inhibitory activity can be evaluated by the efficacy inhibiting the wet-dog shake action which is induced by the administration of Icilin, TRPM8 agonist. Furthermore, an effect on overactive bladder (OAB) can be evaluated by an elongation of micturition interval against overactive bladder induced by acetic acid in accordance with a similar method described in J. Urol., 2001, 166, 1142.
Confirmation Test of Inhibitory Effects on Icilin-induced Wet-dog Shakes
Test compounds were dissolved in dimethylacetamide (wako), and 0.5% methylcellulose solution (wako) was added to make the solution or suspension containing 5% of dimethylacetatnide. At a dose of 0.3 to 10 mg/kg/5mL of test compounds were orally administered to female SD rats. After 1 hour, wet-dog shakes were induced by the intraperitoneal injection of icilin (1 mg/kg) which was dissolved in polyethylene glycol 400 (wako). From 5 minutes after the administration of icilin, wet-dog shakes were counted for 5 minutes. For control example, vehicle (a mixture of dimethylacetamide (wako): 0.5% methylcellulose (wako)=5:95) was administrated similarly, and the number of wet-dog shakes was counted in the same manner. A percent inhibition of wet-dog shakes by test compound was calculated from the following formula: [1-(test compound wet-dog shake count/vehicle wet-dog shake count)]×100.

T1 sequence (Q8R455 whole entry): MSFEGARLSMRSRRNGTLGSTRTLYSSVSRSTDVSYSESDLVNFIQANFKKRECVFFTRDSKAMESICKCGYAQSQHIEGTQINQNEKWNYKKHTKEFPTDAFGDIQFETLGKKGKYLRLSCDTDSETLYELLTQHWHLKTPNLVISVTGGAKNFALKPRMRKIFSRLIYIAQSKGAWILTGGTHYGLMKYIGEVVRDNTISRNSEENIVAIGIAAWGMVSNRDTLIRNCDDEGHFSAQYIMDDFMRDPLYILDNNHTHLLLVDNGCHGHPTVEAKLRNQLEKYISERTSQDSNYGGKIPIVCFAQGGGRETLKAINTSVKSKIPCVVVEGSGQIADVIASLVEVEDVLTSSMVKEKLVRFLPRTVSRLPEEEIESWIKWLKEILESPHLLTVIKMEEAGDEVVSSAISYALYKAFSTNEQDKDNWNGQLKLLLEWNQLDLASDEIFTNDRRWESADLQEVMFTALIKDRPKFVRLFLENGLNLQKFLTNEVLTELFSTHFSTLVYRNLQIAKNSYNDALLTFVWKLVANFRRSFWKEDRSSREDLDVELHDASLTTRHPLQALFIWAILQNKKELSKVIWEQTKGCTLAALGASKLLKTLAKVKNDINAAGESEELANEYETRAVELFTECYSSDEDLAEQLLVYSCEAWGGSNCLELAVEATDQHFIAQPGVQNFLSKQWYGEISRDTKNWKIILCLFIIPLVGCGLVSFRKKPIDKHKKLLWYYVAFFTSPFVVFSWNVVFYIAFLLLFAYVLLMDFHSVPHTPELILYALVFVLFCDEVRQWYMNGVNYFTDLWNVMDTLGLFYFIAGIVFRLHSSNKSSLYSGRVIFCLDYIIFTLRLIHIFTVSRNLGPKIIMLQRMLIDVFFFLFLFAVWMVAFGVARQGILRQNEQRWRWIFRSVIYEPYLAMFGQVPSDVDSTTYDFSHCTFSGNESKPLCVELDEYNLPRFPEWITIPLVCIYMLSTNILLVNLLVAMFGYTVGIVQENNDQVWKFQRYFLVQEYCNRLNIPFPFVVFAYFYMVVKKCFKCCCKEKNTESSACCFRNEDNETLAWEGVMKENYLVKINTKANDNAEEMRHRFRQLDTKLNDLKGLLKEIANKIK

% inhibition of Wet-Dog Shake [%] | SMILES
62 | CO[C@H](CO)[C@@H](Cn1nccn1)NC(=O)c1cccc(F)c1-c1n[nH]c(-c2ccc(F)cc2)c1F [Example 27-30]

Same assay, conditions: female SD rats, oral dose 1 mg/kg, icilin 1 mg/kg i.p. 1 hour after dosing, shakes counted for 5 minutes

% inhibition of Wet-Dog Shake [%] | SMILES
81 | O=C(N[C@H](Cn1cccn1)[C@H](F)CO)c1cccc(F)c1-c1n[nH]c(-c2ccc(F)cc2)c1F [Example 43-39]
56 | O=C(N[C@@H]([C@H](O)CO)C(F)(F)c1ccccn1)c1cccc(F)c1-c1cc(-c2ccc(F)cc2)[nH]n1 [Example 1-229]

Same assay, conditions: female SD rats, oral dose 3 mg/kg, icilin 1 mg/kg i.p. 1 hour after dosing, shakes counted for 5 minutes

SMILES | % inhibition of Wet-Dog Shake [%]
O=C(N[C@@H](CO)Cc1ccccn1)c1ccccc1-c1cc(-c2ccc(F)c(F)c2)[nH]n1 [Example 1-29] | 66
CC(O)(c1ccccn1)[C@H](CO)NC(=O)c1cccc(F)c1-c1cc(-c2ccc(F)cc2)[nH]n1 (some centres unmarked) [Example 1-241] | 100
CO[C@@H](CO)[C@@H](Cn1cccn1)NC(=O)c1cccc(F)c1-c1n[nH]c(-c2ccc(F)cc2)c1F [Example 27-24] | 99
O=C(N[C@@H](CO)Cc1ccccc1)c1cccc(F)c1-c1cc(-c2ccccc2)[nH]n1 [Example 1-68] | 41
O=C(N[C@@H](CCO)Cc1ncccn1)c1cccc(F)c1-c1cc(-c2ccc(F)cc2)[nH]n1 [Example 1-191] | 31
O=C(N[C@H](Cc1ccccn1)[C@H](O)CO)c1cccc(F)c1-c1n[nH]c(-c2ccc(F)cc2)c1F [Example 1-156] | 99
O=C(N[C@@H](CCO)C(O)c1ccccn1)c1ccccc1-c1n[nH]c(-c2ccc(F)cc2)c1F (some centres unmarked) [Example 1-206] | 55
O=C(N[C@H](Cc1ccccn1)C(CO)CO)c1cccc(F)c1-c1cc(-c2ccc(F)cc2)[nH]n1 [Example 35-3] | 69
O=C(N[C@@H](CO)Cc1ccccn1)c1cccc(Cl)c1-c1cc(-c2ccc(F)cc2)[nH]n1 [Example 1-103] | 45
Cn1ccnc1C[C@H](CO)NC(=O)c1cccc(F)c1-c1cc(-c2ccc(F)cc2)[nH]n1 [Example 1-183] | 36
O=C(N[C@@H](CCO)Cc1ccccn1)c1ccccc1-c1cc(-c2ccc(F)cc2)[nH]n1 [Example 1-208] | 100
O=C(NC(CCO)Cc1ccccn1)c1ccccc1-c1cc(-c2ccc(F)cc2)[nH]n1 (centres unmarked) [Example 26-2] | 69
O=C(N[C@@H](CCO)Cc1ccccn1)c1cccc(F)c1-c1cc(-c2ccc(Cl)cc2)[nH]n1 [Example 1-131] | 94
C[C@@](O)(CO)[C@@H](Cc1ccccn1)NC(=O)c1ccccc1-c1cc(-c2ccc(F)cc2)[nH]n1 [Example 1-228] | 97
C[C@](O)(CO)[C@@H](Cc1ccccn1)NC(=O)c1cccc(F)c1-c1cc(-c2ccc(Cl)cc2)[nH]n1 [Example 1-219] | 45
CC(O)[C@@H](Cc1ccccn1)NC(=O)c1cccc(F)c1-c1cc(-c2ccc(F)cc2)[nH]n1 (some centres unmarked) [Example 1-124] | 42
CC(C)(O)[C@@H](Cc1ccccn1)NC(=O)c1cccc(F)c1-c1cc(-c2ccc(Cl)cc2)[nH]n1 [Example 34-1HP, 2-[-5-(4-Chlorophenyl)-1H-pyrazol-3-yl]-3-fluoro-N-[(2R)-3-hydroxy-3-methyl-1-(pyridin-2-yl)butan-2-yl]benzamide] | 92
CO[C@H](CO)[C@@H](Cn1cc(Cl)cn1)NC(=O)c1cccc(F)c1-c1cc(-c2ccc(F)cc2)[nH]n1 [Example 27-29] | 47
O=C(N[C@@H](CO)Cc1ccccn1)c1cccc(OC(F)(F)F)c1-c1cc(-c2ccc(F)cc2)[nH]n1 [Example 1-64] | 69
O=C(N[C@H](Cc1ccccn1)[C@H](O)CO)c1ccccc1-c1cc(-c2ccc(F)cc2)[nH]n1 [Example 1-185] | 56

Next, values leading:

% inhibition of Wet-Dog Shake [%] | SMILES
100 | O=C(N[C@H](Cn1cccn1)[C@@H](F)CO)c1cccc(F)c1-c1cc(-c2ccc(F)cc2)[nH]n1 [Example 50-11]
69 | O=C(N[C@H](Cn1cccn1)[C@H](F)CO)c1cccc(F)c1-c1cc(-c2ccc(Cl)cc2)[nH]n1 [Example 43-44]
62 | O=C(N[C@@H](CCO)C(O)c1ccccn1)c1cccc(F)c1-c1cc(-c2ccc(F)cc2)[nH]n1 (some centres unmarked) [Example 54-3]
100 | CO[C@@H](CO)[C@@H](Cc1ccccn1)NC(=O)c1cccc(F)c1-c1cc(-c2ccc(F)cc2)[nH]n1 [Example 43-2]
78 | COC(c1ccccn1)[C@H](CO)NC(=O)c1ccccc1-c1n[nH]c(-c2ccc(F)cc2)c1F (some centres unmarked) [Example 43-17]
42 | CC(c1ccccn1)[C@@H](NC(=O)c1cccc(F)c1-c1n[nH]c(-c2ccc(F)cc2)c1F)[C@H](O)CO (some centres unmarked) [Example 54-17]
92 | COC(c1ccccn1)[C@H](CO)NC(=O)c1cccc(Cl)c1-c1cc(-c2ccc(F)cc2)[nH]n1 (some centres unmarked) [Example 43-12]
100 | O=C(N[C@@H](Cc1ccccn1)[C@H](F)CO)c1cccc(F)c1-c1cc(-c2ccc(F)cc2)[nH]n1 [Example 43-25]
89 | O=C(N[C@H](Cc1ncccn1)[C@@H](O)CF)c1cccc(F)c1-c1cc(-c2ccc(F)cc2)[nH]n1 [Example 50-2]
77 | CC(c1ccccn1)[C@@H](NC(=O)c1cccc(F)c1-c1cc(-c2ccc(F)cc2)[nH]n1)[C@H](O)CO (some centres unmarked) [Example 54-14]
77 | CO[C@H](CO)[C@@H](Cc1ccccn1)NC(=O)c1cccc(Cl)c1-c1cc(-c2ccc(F)cc2)[nH]n1 [Example 43-4]
47 | O=C(N[C@H](Cc1ccccn1)[C@@H](O)CO)c1cccc(F)c1-c1cc(-c2ccc(F)cc2)[nH]n1 [Example 54-6]
100 | CO[C@H](CO)[C@@H](Cc1ccccn1)NC(=O)c1cccc(F)c1-c1cc(-c2ccc(F)cc2F)[nH]n1 [Example 43-34]
100 | O=C(N[C@H](Cc1ncccn1)C(F)(F)CO)c1cccc(F)c1-c1cc(-c2ccc(F)cc2)[nH]n1 [Example 50-4]
40 | O=C(N[C@H](Cc1ccccn1)[C@@H](O)CO)c1cccc(F)c1-c1n[nH]c(-c2ccc(F)cc2)c1F [Example 54-9]
97 | COC(c1ccccn1)[C@H](CO)NC(=O)c1cccc(F)c1-c1n[nH]c(-c2ccc(F)cc2)c1F (some centres unmarked) [Example 43-16]
50 | C[C@H](O)C[C@H](NC(=O)c1cccc(F)c1-c1cc(-c2ccc(F)cc2)[nH]n1)C(O)c1ccccn1 (some centres unmarked) [Example 54-4]
82 | O=C(N[C@H](Cn1cccn1)[C@@H](O)CF)c1cccc(F)c1-c1cc(-c2ccc(F)cc2)[nH]n1 [Example 50-8]
31 | CO[C@H](CO)[C@@H](Cc1ccccn1)NC(=O)c1cccc(F)c1-c1n[nH]c(-c2ccc(F)cc2)c1Cl [Example 43-36]

Same assay, conditions: female SD rats, oral dose 10 mg/kg, icilin 1 mg/kg i.p. 1 hour after dosing, shakes counted for 5 minutes

% inhibition of Wet-Dog Shake [%] | SMILES
93 | O=C(N[C@@H](CO)Cc1ccccn1)c1cccc(F)c1-c1cc(-c2ccccc2)[nH]n1 [Example 1-69]
86 | O=C(N[C@@H](CO)Cc1ccccn1)c1ccccc1-c1cc(-c2ccc(Cl)c(F)c2)[nH]n1 [Example 1-85]
